Assay results: paper PMC5803267, “A small molecule inhibitor of Rheb selectively targets mTORC1 signaling” (Nature Communications, 2018)

Columns and labels:
[1] = test system: T202/Y204pERK1/2 (Ras/ERK pathway) in MCF-7 cells; assay: EGF-induced T202/Y204pERK1/2 Western blot in MCF-7 cells; format: cell-based, human; conditions: MCF-7 serum-starved 16 h, compound 90 min, 100 ng mL^−1 EGF
Description: MCF-7 cells were serum-starved for 16 h and treated with compound for 90 min before cell lysis and Western blot analysis. For insulin-stimulated cells, 100 nM insulin was added 30 min before cell lysis. For EGF-stimulated cells, 100 ng mL^−1 EGF was added 10 min before cell lysis. c Rap1 activity was detected in lysates loaded in vitro with either GDP or GTPγS and treated with NR1 at the indicated concentrations. This was followed by a subsequent pulldown of GST-RalGDS-RBD. Bound Rap1 was detected by Western blot. d Evaluation of NR1 in a LAM patient-derived cell line (TRI102) under replete and serum-starved conditions. For replete conditions, TRI102 cells were treated for 90 min with compound in DMEM + 10% FBS. For serum-starved conditions, TRI102 cells were serum-starved 16 h and then treated for 90 min with compound prior to cell lysis and Western blot analysis. e HEK293 cells co-transfected with the indicated mTOR constructs and HA-GST-S6K1 were starved of amino acids or treated with NR1. To assess mTORC1 activity, an HA IP was performed and Western blots probed for ^T389pS6K1. f Chronic treatment of PC3 cells with NR1 to evaluate the inhibition of mTORC1 (using ^T389pS6K1) versus mTORC2 (using ^S473pAKT). PC3 cells were treated with compound under replete conditions for 24 h prior to cell lysis and Western blot analysis. […]

Rheb = Rheb (Homo sapiens, UniProt Q15382); assay: Affinity selection mass spectrometry (ASMS) Rheb binding; conditions: result in words
Excerpt: We used both Rheb binding and functional activity to guide the SAR optimization. Due to its high sensitivity and ability to detect weak binding ligands, STD NMR was initially used to measure Rheb binding. In addition to the benzimidazole of 1, we also explored the related indole scaffold, which allowed a wider range of functionalization. […] Therefore, we also used affinity selection mass spectrometry (ASMS) as a semi-quantitative measure of Rheb binding.

Aqueous solubility = format: physicochemical; conditions: result in words

Sequence of Rheb (Q15382 whole entry): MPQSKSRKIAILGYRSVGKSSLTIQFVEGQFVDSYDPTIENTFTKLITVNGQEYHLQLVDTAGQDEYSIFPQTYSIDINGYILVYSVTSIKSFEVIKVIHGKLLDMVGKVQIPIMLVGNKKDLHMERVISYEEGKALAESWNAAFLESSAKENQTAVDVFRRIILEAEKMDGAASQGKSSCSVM

For `CN(C)C(=O)c1ccc(Cn2c(C(=O)O)cc3c(Br)cc(Sc4ccc(Cl)c(Cl)c4)cc32)cc1` [NR1, 4-bromo-6-(3,4-dichlorophenylthio)-1-(4-(dimethylcarbamoyl)benzyl)-1H-indole-2-carboxylic acid], the “EGF-induced phosphorylation of T202/Y204pERK1/2” value [1] was “did not inhibit”, the “Rheb binding by ASMS” value (Rheb) was “significant affinity” and the aqueous solubility (Aqueous solubility) was “low aqueous solubility”.
